Values belong to the molecule of their own block, whether it stands above or below them.
Tested on: 276233-004-R-J1-PDC complex spheroid viability
Experiment: Anticancer human tumor 276233-004-R-J1-PDC patient-derived colon adenocarcinoma cell line growth inhibition [GQUAD]
Settings: for IC50: curve of first compound; for viability, T/C: stronger effect = lower value
Outline: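 Tumor cells were grown as complex spheroids with HUVEC endothelial cells and mesenchymal stem cells as stroma. G-quadruplex stabilizers were combined with targeted agents over half-log dilutions from near the clinical Cmax, or from 10 microM.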

[1] = second compound 0.0316 µM, first compound 0.000999 µM
[2] = second compound 0.0316 µM, first compound 0.00316 µM
[3] = second compound 0.0316 µM, first compound 0.00999 µM
[4] = second compound 0.0316 µM, first compound 0.0316 µM
[5] = second compound 0.0316 µM, first compound 0.0999 µM
[6] = second compound 0.0316 µM, first compound 0.316 µM
[7] = second compound 0.1 µM, first compound 0.000999 µM
[8] = second compound 0.1 µM, first compound 0.00316 µM
[9] = second compound 0.1 µM, first compound 0.00999 µM
[10] = second compound 0.1 µM, first compound 0.0316 µM
[11] = second compound 0.1 µM, first compound 0.0999 µM
[12] = second compound 0.1 µM, first compound 0.316 µM
[13] = second compound 0.316 µM, first compound 0.000999 µM
[14] = second compound 0.316 µM, first compound 0.00316 µM
[15] = second compound 0.316 µM, first compound 0.00999 µM
[16] = second compound 0.316 µM, first compound 0.0316 µM
[17] = second compound 0.316 µM, first compound 0.0999 µM
[18] = second compound 0.316 µM, first compound 0.316 µM
[19] = second compound 1 µM, first compound 0.000999 µM
[20] = second compound 1 µM, first compound 0.00316 µM
[21] = second compound 1 µM, first compound 0.00999 µM
[22] = second compound 1 µM, first compound 0.0316 µM
[23] = second compound 1 µM, first compound 0.0999 µM
[24] = second compound 1 µM, first compound 0.316 µM
[25] = second compound 3.16 µM, first compound 0.000999 µM
[26] = second compound 3.16 µM, first compound 0.00316 µM
[27] = second compound 3.16 µM, first compound 0.00999 µM
[28] = second compound 3.16 µM, first compound 0.0316 µM
[29] = second compound 3.16 µM, first compound 0.0999 µM
[30] = second compound 3.16 µM, first compound 0.316 µM
[31] = second compound 10 µM, first compound 0.000999 µM
[32] = second compound 10 µM, first compound 0.00316 µM
[33] = second compound 10 µM, first compound 0.00999 µM
[34] = second compound 10 µM, first compound 0.0316 µM
[35] = second compound 10 µM, first compound 0.0999 µM
[36] = second compound 10 µM, first compound 0.316 µM
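Further: spheroids exposed to drugs for seven days.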
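Wherever viability, T/C is given: 100% = DMSO vehicle control viability.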

IC50 (second compound 0.0316 µM): > 0.316 µM
IC50 (second compound 0.1 µM): > 0.316 µM
IC50 (second compound 0.316 µM): > 0.316 µM
IC50 (second compound 1 µM): > 0.316 µM
IC50 (second compound 3.16 µM): > 0.316 µM
IC50 (second compound 10 µM): > 0.316 µM
Compound: CCc1c2c(nc3ccc(O)cc13)-c1cc3c(c(=O)n1C2)COC(=O)[C@]3(O)CC + Cc1cnc(CNC(=O)c2c(=O)c3ccc(N4CCCN(C)CC4)nc3n3c2sc2ccccc23)cn1
viability, T/C [1]: 96.8%
viability, T/C [2]: 92.2%
viability, T/C [3]: 90.9%
viability, T/C [4]: 90%
viability, T/C [5]: 99.4%
viability, T/C [6]: 103%
viability, T/C [7]: 97.9%
viability, T/C [8]: 90.4%
viability, T/C [9]: 90.6%
viability, T/C [10]: 110%
viability, T/C [11]: 94.2%
viability, T/C [12]: 89.2%
viability, T/C [13]: 91.6%
viability, T/C [14]: 103%
viability, T/C [15]: 105%
viability, T/C [16]: 84.8%
viability, T/C [17]: 85.8%
viability, T/C [18]: 79.4%
viability, T/C [19]: 85.4%
viability, T/C [20]: 74.7%
viability, T/C [21]: 84.7%
viability, T/C [22]: 77%
viability, T/C [23]: 83.2%
viability, T/C [24]: 76.2%
viability, T/C [25]: 81.6%
viability, T/C [26]: 96.1%
viability, T/C [27]: 80.2%
viability, T/C [28]: 67.4%
viability, T/C [29]: 85.1%
viability, T/C [30]: 71.5%
viability, T/C [31]: 72.4%
viability, T/C [32]: 88.4%
viability, T/C [33]: 75.5%
viability, T/C [34]: 65.5%
viability, T/C [35]: 77.8%
viability, T/C [36]: 62%

IC50 (second compound 0.0316 µM): 0.211 µM
IC50 (second compound 0.1 µM): 0.144 µM
IC50 (second compound 0.316 µM): 0.127 µM
IC50 (second compound 1 µM): 0.0624 µM
IC50 (second compound 3.16 µM): 0.0469 µM
IC50 (second compound 10 µM): 0.0405 µM
Compound: Cc1[nH]c2ccccc2c1CCNCc1ccc(/C=C/C(=O)NO)cc1 + Cc1cnc(CNC(=O)c2c(=O)c3ccc(N4CCCN(C)CC4)nc3n3c2sc2ccccc23)cn1
viability, T/C [1]: 90.4%
viability, T/C [2]: 93%
viability, T/C [3]: 87.7%
viability, T/C [4]: 82.3%
viability, T/C [5]: 75.7%
viability, T/C [6]: 36.6%
viability, T/C [7]: 80.1%
viability, T/C [8]: 74.1%
viability, T/C [9]: 92.7%
viability, T/C [10]: 101%
viability, T/C [11]: 57.8%
viability, T/C [12]: 33.2%
viability, T/C [13]: 88%
viability, T/C [14]: 99.1%
viability, T/C [15]: 102%
viability, T/C [16]: 74.3%
viability, T/C [17]: 57.9%
viability, T/C [18]: 29.6%
viability, T/C [19]: 71.5%
viability, T/C [20]: 92%
viability, T/C [21]: 88.1%
viability, T/C [22]: 70.9%
viability, T/C [23]: 35.2%
viability, T/C [24]: 19.1%
viability, T/C [25]: 71.6%
viability, T/C [26]: 85.8%
viability, T/C [27]: 68%
viability, T/C [28]: 62.3%
viability, T/C [29]: 29.2%
viability, T/C [30]: 9.8%
viability, T/C [31]: 70.9%
viability, T/C [32]: 60.8%
viability, T/C [33]: 73.2%
viability, T/C [34]: 54.7%
viability, T/C [35]: 26.4%
viability, T/C [36]: 4.45%
